According to PMC10643470, “Knockout or inhibition of USP30 protects dopaminergic neurons in a Parkinson’s disease mouse model” (Nature Communications, 2023):
pIC50: −log10 of the molar value. “And” between values parts separate entries of the source, which are not always exact repeats. Equal values may be shown once. Read-outs that look alike come from different tables or passages of the source.

Columns and labels:
BAP1 = BAP1 (Homo sapiens, UniProt Q92560); assay: DUB/cathepsin selectivity biochemical assay
[1] = Mouse exploratory toxicology; type: in vivo; conditions: two weeks of dosing, dose levels up to 300 mg/kg/day
[2] = test system: TOM20-ubiquitylation in alpha-synuclein A53T mutated iPSC-derived dopaminergic neurons; assay: TOM20-ubiquitylation in A53T iPSC-derived dopaminergic neurons; type: cell-based, human; conditions: no exogenous stimuli
Description: Donor-derived DopaNeuron lines were generated from source material provided by the Parkinson’s Progression Markers Initiative (PPMI) through The Michael J. Fox Foundation. Human iPS cells-derived DopaNeurons were purchased from Fujifilm/Cellular Dynamics. Apparently healthy normal (AHN) (catalog # R1088) or alpha-synuclein A53T mutated (A53T) (catalog # R1109) iPSC-derived dopaminergic neurons (dopaneurons) were thawed from liquid nitrogen. 400 000 viable (counted using a cell counter) dopaneurons […] were plated per well into 24 well plates on day 0 in complete maintenance medium (CMM).
A half-medium change was performed on the cells on Day 3 with CMM. On Day 5 cells were half-medium changed with complete brainphys medium. […] Cells were given half medium changes with or without compounds (depending on whether treatments with compound had started) every 2-3 days.

[3] = test system: AAV-A53T-SNCA PD mouse model; assay: Total αSyn and phospho-S129 αSyn immunostaining in SNpc, AAV-A53T-SNCA mouse model (compound study); type: in vivo
Description: For the compound study, the fixed, cryoprotected and frozen midbrain samples were sectioned as coronal sections at 100 µm intervals through SNpc and ventral tegmental area (VTA) and mounted on glass slides. Sectioning was started at −2.6 mm from bregma and continued to −3.7 mm from bregma in the AP axis (coordinates based on Franklin & Paxinos: The Mouse Brain in Stereotaxic Coordinates). For the immunostaining, the sections were stained with anti-TH following permeabilization. The stained sections were scanned with the Olympus VS120 slide scanner and analyzed with a VIS-Visiopharm Integrator System (Visiopharm, Denmark) by a blinded data analyst. All cells of interest with visible nuclei were labeled manually and counted using an APP (Analysis Protocol Package), scaled by section thickness and sectioning interval to estimate the total cell population in the SNpc. For immunostaining of Ser129 αSyn phosphorylation, TSA amplification was used with primary antibody ab51253 (Abcam). Blinded analysis was used, and positive cells per area were determined. For dual IF IHC of Iba1 (WAKO) and GFAP (ab4674 – Abcam), the stained sections were scanned and analyzed by a blinded data analyst. Analysis determines the percentage of positive staining area [%area = (stained area/region area) * (100)]. To calculate % of stained area, the same threshold value was applied to all sections with the same antibody staining. All pixels above the threshold value were considered positive. All striatal densitometry and neuronal counting data for both KO and inhibitor studies were obtained by an investigator blinded to genotype and treatment.

[4] = In-life whole blood compound levels in the A53T model; type: in vivo, mouse; conditions: for Blood exposure / Cmax: A53T model; for Blood exposure: 0.5-6 h sampling; for In-life whole blood compound level (Figure 4d): individual animals; for Cmax: mouse, whole blood, seven days before end of study
Method: In-life blood samples were taken at 0.5, 1, 2, 4, 6 h, timed relative to the first daily dose, from n = 3 animals per time point to give a composite profile from animals in each group. The in-life blood samples were collected from the saphenous vein (20 µL), transferred in an Eppendorf tube immediately and mixed with an equal volume (20 µL) of ice-cold Serine esterase inhibitor, trichlorfon (100 µM), the sample was frozen, stored at −80 °C and compound levels analyzed by LC-MS.

USP21 CD = target: T1, USP21 CD (Homo sapiens, UniProt Q9UK80); assay: DUB/cathepsin selectivity biochemical assay
T1 construct: USP21 CD

Cathepsin L = Cathepsin L (Homo sapiens, UniProt P07711); assay: DUB/cathepsin selectivity biochemical assay; conditions: Supplementary Fig. 6a; read-out: Selectivity vs Cathepsins (IC50), Cath L
Cathepsin L, sequence (P07711 114-333, species assumed): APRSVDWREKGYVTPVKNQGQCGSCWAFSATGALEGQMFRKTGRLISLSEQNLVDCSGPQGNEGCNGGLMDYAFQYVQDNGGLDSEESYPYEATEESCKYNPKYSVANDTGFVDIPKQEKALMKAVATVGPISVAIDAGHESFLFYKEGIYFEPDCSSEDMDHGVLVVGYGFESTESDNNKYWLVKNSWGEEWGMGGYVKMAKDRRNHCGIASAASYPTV

SENP1 CD = target: T2, SENP1 CD (Homo sapiens, UniProt Q9P0U3); assay: DUB/cathepsin selectivity biochemical assay
T2 construct: SENP1 CD
T2 sequence (Q9P0U3 450-613 limits assumed): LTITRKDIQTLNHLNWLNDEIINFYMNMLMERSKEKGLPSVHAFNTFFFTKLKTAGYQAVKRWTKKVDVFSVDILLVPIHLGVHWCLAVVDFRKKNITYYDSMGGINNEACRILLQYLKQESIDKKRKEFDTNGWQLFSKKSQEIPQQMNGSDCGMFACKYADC

USP22 = USP22 (Homo sapiens, UniProt Q9UPT9); assay: DUB/cathepsin selectivity biochemical assay
USP19 = USP19 (Homo sapiens, UniProt O94966); assay: DUB/cathepsin selectivity biochemical assay
USP19, sequence (O94966 whole entry, species assumed): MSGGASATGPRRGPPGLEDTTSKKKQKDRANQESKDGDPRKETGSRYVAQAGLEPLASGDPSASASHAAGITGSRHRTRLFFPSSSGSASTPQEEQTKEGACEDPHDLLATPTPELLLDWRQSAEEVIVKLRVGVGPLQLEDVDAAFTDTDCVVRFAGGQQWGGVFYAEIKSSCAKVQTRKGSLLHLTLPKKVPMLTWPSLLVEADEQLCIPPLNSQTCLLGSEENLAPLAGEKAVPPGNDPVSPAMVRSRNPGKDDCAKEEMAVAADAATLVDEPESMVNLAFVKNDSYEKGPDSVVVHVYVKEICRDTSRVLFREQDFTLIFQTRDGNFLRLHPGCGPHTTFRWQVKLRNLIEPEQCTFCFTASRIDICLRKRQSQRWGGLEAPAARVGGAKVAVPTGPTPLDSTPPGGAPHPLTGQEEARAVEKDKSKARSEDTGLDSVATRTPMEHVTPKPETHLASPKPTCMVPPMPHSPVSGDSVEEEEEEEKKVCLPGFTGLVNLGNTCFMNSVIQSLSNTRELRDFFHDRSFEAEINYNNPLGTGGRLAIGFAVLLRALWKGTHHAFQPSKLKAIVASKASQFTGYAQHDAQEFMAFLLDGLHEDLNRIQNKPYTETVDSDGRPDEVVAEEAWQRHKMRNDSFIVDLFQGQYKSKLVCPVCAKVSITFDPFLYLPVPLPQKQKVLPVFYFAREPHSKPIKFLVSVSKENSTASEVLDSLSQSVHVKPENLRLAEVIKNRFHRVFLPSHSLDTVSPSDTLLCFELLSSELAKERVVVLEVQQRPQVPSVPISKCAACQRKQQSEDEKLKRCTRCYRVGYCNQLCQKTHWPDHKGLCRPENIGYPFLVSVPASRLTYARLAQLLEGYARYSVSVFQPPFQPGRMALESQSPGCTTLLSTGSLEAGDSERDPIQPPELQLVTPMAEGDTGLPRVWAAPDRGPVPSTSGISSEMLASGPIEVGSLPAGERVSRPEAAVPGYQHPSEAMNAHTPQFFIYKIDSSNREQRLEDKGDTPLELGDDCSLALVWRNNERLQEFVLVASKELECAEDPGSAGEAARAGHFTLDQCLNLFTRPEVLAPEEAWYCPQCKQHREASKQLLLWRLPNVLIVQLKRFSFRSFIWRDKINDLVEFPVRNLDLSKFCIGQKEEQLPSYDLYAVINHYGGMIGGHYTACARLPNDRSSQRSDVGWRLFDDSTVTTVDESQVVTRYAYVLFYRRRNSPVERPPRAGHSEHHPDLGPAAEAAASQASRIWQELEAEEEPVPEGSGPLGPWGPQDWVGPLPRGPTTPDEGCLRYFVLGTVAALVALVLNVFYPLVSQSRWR

USP2 = USP2 (Homo sapiens, UniProt O75604); assay: DUB/cathepsin selectivity biochemical assay
USP2, sequence (O75604 whole entry, species assumed): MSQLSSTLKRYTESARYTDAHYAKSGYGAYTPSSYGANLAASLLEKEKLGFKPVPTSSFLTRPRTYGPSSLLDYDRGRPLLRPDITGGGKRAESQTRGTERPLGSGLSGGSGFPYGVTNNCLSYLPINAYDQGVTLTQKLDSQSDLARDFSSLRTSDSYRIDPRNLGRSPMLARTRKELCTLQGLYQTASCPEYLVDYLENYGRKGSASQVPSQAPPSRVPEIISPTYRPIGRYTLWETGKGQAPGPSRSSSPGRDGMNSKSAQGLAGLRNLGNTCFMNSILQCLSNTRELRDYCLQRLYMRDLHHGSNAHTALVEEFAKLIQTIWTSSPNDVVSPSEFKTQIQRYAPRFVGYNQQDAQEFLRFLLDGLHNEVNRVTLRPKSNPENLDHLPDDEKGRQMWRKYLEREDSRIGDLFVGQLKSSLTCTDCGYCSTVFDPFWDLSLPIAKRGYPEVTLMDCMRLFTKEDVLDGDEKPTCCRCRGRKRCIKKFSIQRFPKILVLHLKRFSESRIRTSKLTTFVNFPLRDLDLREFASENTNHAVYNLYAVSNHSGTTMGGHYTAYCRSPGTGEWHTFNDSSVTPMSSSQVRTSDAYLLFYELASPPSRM

USP34 CORE = target: T3, USP34 CORE (Homo sapiens, UniProt Q70CQ2); assay: DUB/cathepsin selectivity biochemical assay
T3 construct: USP34 CORE

USP36 CD = target: T4, USP36 CD (Homo sapiens, UniProt Q9P275); assay: DUB/cathepsin selectivity biochemical assay
T4 construct: USP36 CD

USP16 = USP16 (Homo sapiens, UniProt Q9Y5T5); assay: DUB/cathepsin selectivity biochemical assay
USP16, sequence (Q9Y5T5 whole entry, species assumed): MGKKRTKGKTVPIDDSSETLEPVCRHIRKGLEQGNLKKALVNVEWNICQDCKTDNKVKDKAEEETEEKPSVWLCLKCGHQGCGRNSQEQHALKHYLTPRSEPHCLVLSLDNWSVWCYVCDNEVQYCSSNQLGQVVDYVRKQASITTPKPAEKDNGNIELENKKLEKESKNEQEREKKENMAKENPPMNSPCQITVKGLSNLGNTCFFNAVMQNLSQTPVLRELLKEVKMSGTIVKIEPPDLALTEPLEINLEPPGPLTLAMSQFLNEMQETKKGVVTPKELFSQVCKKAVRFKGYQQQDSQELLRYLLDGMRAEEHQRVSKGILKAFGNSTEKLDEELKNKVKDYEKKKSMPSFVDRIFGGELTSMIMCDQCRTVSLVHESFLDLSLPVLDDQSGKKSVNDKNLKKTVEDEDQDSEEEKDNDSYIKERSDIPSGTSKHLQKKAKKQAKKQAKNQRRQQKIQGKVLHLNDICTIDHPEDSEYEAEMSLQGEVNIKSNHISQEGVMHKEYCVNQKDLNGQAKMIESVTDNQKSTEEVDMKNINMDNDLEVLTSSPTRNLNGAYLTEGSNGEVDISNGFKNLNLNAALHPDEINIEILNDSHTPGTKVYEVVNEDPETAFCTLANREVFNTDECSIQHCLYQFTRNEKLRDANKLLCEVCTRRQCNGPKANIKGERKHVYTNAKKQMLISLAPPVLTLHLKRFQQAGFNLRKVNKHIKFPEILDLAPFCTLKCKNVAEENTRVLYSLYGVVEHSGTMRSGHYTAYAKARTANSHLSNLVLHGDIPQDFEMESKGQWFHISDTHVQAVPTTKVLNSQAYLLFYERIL

USP12/UAF1 = USP12/UAF1 (Homo sapiens, UniProt O75317); assay: DUB/cathepsin selectivity biochemical assay
USP12/UAF1, sequence (O75317 whole entry, species assumed): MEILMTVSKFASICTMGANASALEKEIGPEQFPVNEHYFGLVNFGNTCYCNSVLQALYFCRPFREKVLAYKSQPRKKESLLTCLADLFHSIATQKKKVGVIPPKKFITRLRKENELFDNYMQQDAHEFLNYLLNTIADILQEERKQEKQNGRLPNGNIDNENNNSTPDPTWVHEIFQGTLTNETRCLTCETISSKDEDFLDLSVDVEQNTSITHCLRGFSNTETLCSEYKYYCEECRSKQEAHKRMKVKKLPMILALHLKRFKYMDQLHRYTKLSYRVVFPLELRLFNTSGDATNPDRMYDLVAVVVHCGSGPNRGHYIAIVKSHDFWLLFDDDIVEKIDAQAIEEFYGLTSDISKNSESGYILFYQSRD
USP12/UAF1, sequence (Q8TAF3 whole entry partner, species assumed): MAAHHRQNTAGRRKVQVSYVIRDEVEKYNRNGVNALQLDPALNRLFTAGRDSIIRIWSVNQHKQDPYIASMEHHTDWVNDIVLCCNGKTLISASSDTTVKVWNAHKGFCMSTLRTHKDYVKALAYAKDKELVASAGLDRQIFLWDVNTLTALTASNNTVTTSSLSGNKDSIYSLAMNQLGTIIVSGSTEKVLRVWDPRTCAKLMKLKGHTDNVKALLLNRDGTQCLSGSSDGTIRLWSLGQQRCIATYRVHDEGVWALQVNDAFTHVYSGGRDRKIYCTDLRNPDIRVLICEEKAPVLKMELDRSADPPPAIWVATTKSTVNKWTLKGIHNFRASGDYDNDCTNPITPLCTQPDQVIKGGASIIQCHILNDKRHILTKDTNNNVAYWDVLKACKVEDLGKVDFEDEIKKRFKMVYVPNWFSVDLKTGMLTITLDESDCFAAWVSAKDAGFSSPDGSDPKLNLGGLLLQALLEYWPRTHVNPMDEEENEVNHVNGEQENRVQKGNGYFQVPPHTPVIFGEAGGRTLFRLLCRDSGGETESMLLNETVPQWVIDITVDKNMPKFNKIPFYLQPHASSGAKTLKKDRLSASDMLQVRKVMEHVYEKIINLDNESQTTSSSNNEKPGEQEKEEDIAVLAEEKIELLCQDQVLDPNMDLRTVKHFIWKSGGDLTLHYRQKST

USP1 = USP1 (Homo sapiens, UniProt O94782); assay: DUB/cathepsin selectivity biochemical assay
USP1, sequence (O94782 whole entry, species assumed): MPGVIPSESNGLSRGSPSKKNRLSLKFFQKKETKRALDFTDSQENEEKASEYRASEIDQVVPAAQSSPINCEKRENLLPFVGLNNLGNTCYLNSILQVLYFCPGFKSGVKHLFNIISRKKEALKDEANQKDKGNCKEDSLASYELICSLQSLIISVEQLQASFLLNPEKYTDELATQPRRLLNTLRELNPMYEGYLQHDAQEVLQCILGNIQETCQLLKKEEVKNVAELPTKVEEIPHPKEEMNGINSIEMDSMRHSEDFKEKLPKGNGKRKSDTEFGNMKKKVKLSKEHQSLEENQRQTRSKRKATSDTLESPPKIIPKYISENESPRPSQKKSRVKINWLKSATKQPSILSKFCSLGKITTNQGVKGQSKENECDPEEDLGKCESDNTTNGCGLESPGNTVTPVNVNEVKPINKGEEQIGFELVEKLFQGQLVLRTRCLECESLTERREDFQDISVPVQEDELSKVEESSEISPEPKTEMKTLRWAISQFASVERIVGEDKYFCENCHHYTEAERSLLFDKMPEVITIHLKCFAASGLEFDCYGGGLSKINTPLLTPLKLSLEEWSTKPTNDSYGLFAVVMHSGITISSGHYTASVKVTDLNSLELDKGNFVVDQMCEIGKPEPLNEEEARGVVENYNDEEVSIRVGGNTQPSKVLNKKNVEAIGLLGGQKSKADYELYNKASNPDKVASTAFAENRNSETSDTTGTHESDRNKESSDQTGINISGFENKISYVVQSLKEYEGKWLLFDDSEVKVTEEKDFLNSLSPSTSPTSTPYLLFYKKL
USP1, sequence (Q8TAF3 whole entry partner, species assumed): as the sequence (Q8TAF3 whole entry partner, species assumed) above

USP5 = USP5 (Homo sapiens, UniProt P45974); assay: DUB/cathepsin selectivity biochemical assay
[5] = Mouse blood and prefrontal cortex microdialysis pharmacokinetics (Kpu,u); type: in vivo; conditions: single 10 mg/kg oral dose, at the 60-min time point
Method: Mouse Kpu,u estimates were calculated from blood and prefrontal cortex compound profiles following oral dosing of 10 or 30 mg/kg by gavage, with sequential blood sampling from the jugular vein and sequential brain interstitial fluid sampling via a microdialysis probe in the prefrontal cortex.

USP10 = USP10 (Homo sapiens, UniProt Q14694); assay: DUB/cathepsin selectivity biochemical assay
USP25 = USP25 (Homo sapiens, UniProt Q9UHP3); assay: DUB/cathepsin selectivity biochemical assay
[6] = AAV-A53T + MTX115325 (50 mg/kg), Group 5, Left hemisphere, individual animal values (Animal ID in r3)
[7] = AAV-A53T + MTX115325 (50 mg/kg), Group 5, Right hemisphere, individual animal values (Animal ID in r3)

C[C@@H]1[C@H]2CCN(C(=O)c3ncc(-c4ccnc(C#N)c4)o3)[C@H]2CN1C#N [MTX115325]
pIC50 (BAP1): < 3.52 | Tolerability (clinical observations, pathology) [1]: well tolerated with no adverse clinical observations or pathology findings | TOM20-ubiquitylation ([2]; A53T neurons, 7 days at 10 nM, 100 nM or 1 µM): caused the upregulation of TOM20-ubiquitylation | TOM20-ubiquitylation ([2]; A53T αSyn background, 24 h, 1 µM): increased TOM20-ubiquitylation | Phosphorylated S129-αSyn ([3]; 50 mg/kg, SNpc): significantly reduced | Figure S7c immunostaining quantification, Left [3, 6]: 0 (7×) and 0.04487 and 0.008105 and 0.007836 and 0.01908 and 0.009848 and 0.001515 and 0.003247 and 0.005828 | Figure S7d immunostaining quantification, Left [3, 6]: 0 (10×) and 1.603 and 0.7671 and 1.12 and 0.7902 | Figure S7c immunostaining quantification, Right [3, 7]: 0.007974 and 0.07707 and 0.1923 and 0.06947 and 0.001983 and 0 (5×) and 0.06633 and 0.1857 and 0.01165 and 0.002029 and 6.4046e-5 | Figure S7d immunostaining quantification, Right [3, 7]: 57.3627 and 99.9359 and 9.299 and 6.893 and 1.412 and 0 (4×) and 0.2913 and 18.3383 and 84.6359 and 0.2072 and 0.6527 | Blood exposure ([4]; 15 mg/kg BID oral): 13606 ng·h/mL | In-life whole blood compound level (Figure 4d) ([4]; 15mg/kg, 0 hours): 0 | In-life whole blood compound level (Figure 4d) ([4]; 15mg/kg, 0.5 hours): 6664.93 and 11816.1 | In-life whole blood compound level (Figure 4d) ([4]; 15mg/kg, 1 hour): 7008.88 and 8260.64 | In-life whole blood compound level (Figure 4d) ([4]; 15mg/kg, 2 hours): 2278.7 and 2189.81 | In-life whole blood compound level (Figure 4d) ([4]; 15mg/kg, 4 hours): 404.48 and 419 and 425.15 | In-life whole blood compound level (Figure 4d) ([4]; 15mg/kg, 6 hours): 92.39 and 277.42 | Blood exposure ([4]; 50 mg/kg BID oral): 42959 ng·h/mL | In-life whole blood compound level (Figure 4d) ([4]; 50mg/kg, 0 hours): 0 | In-life whole blood compound level (Figure 4d) ([4]; 50mg/kg, 0.5 hours): 12073.7 and 13499.1 and 13769.4 | In-life whole blood compound level (Figure 4d) ([4]; 50mg/kg, 1 hour): 13326.8 and 14323.4 and 17878.5 | In-life whole blood compound level (Figure 4d) ([4]; 50mg/kg, 2 hours): 8220.29 and 5260.76 | In-life whole blood compound level (Figure 4d) ([4]; 50mg/kg, 4 hours): 1244.02 and 1284.38 | In-life whole blood compound level (Figure 4d) ([4]; 50mg/kg, 6 hours): 402.46 and 633.68 | Cmax ([4]; 15 mg/kg BID oral): 7550 ng/mL | Cmax ([4]; 50 mg/kg BID oral): 16400 ng/mL | pIC50 (USP21 CD): 4.22 | pIC50 (Cathepsin L): 4.38 | pIC50 (SENP1 CD): < 3.52 | pIC50 (USP22): 3.83 | pIC50 (USP19): 3.56 | pIC50 (USP2; Supplementary Fig. 6a, read-out: Selectivity vs DUBs (IC50), USP2): 4.60 | pIC50 (USP2; USP2, read-out: IC50): 4.60 | pIC50 (USP34 CORE): < 3.52 | pIC50 (USP36 CD): 3.80 | pIC50 (USP16): 4.08 | pIC50 (USP12/UAF1): < 3.52 | pIC50 (USP1): < 3.52 | pIC50 (USP5): < 3.52 | Prefrontal cortex free CMax [5]: 528 nM | pIC50 (USP10): 3.97 | pIC50 (USP25): 4.03
